Consider eight compounds from ChEMBL document CHEMBL3580531, “Biotransformation of Curcumenol by Mucor polymorphosporus” (J Nat Prod, 2015).

For this assay, the system named is RAW264.7. In words: Antiinflammatory activity in mouse RAW264.7 cells assessed as inhibition of LPS-induced nitric oxide production after 1 day by Griess assay. Conditions: RAW264.7, 24 h. It counts as functional, cell-based. A general note: Griess reagent forms a coloured azo dye with nitrite.

Molecules are shown by their SMILES.

A word on the IC50: it is the midpoint of a concentration-inhibition curve. For the compound `CC1=C[C@@]2(O)O[C@@]3(C/C2=C(/C)CO)[C@@H](C)CC[C@@H]13`, the IC50 was 9.6 µM.
On to `CC(C)=C1C[C@@]23O[C@]1(O)C[C@](C)(O)[C@@H]2CC[C@@H]3C`, for which the IC50 is > 50 µM.
Then `CC1=C[C@@]2(O)O[C@]3(CC2=C(C)C)[C@H]1[C@H](O)C[C@@H]3C`, with 18.5 µM.
In the case of `CC(C)=C1C[C@@]23O[C@]1(O)C=C(CO)[C@@H]2CC[C@@H]3C`, the IC50 was determined as 6.4 µM.
As to `Cc1cc(=O)c(C(C)(C)O)cc2c1C(=O)C[C@@H]2C`, the IC50 came to 6.4 µM.
To `Cc1cc(C(=O)O)cc2c1C(=O)C[C@@H]2C` belongs 2.8 µM.
`CC1=C[C@]2(O)O[C@@]3(CC2=C(C)C)[C@@H](C)CC[C@@H]13` [CURCUMENOL]: the IC50 was 5.4 µM.
To `COc1ccc2c(c1)c(CC(=O)O)c(C)n2C(=O)c1ccc(Cl)cc1` [INDOMETHACIN] belongs 14.1 µM.
